Measurements: ChEMBL document CHEMBL1128816, “Synthesis and structure-activity relationships of new acetylcholinesterase inhibitors: Morpholinoalkylcarbamoyloxyeseroline derivatives” (Bioorg Med Chem Lett, 1995)

Target: Acetylcholinesterase (Homo sapiens, UniProt P22303)
Assay: Inhibition of Acetylcholinesterase (AChE) from human RBC

Sequence of Acetylcholinesterase (P22303 whole entry): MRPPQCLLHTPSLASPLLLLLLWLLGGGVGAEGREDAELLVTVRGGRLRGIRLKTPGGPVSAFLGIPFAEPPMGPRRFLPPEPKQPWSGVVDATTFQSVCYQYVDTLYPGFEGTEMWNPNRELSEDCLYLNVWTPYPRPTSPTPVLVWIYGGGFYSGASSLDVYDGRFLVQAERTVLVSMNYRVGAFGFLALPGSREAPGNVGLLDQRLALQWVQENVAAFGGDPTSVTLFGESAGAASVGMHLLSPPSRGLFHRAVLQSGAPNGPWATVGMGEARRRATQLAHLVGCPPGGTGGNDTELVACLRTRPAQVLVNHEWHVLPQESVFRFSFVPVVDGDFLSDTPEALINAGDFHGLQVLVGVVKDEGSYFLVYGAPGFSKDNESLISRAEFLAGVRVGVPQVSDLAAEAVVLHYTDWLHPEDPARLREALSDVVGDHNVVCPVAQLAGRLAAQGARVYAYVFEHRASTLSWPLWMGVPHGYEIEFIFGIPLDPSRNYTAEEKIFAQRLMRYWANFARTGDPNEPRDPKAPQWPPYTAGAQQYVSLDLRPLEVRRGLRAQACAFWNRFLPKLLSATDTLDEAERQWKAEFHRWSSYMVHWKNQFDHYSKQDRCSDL

Row | SMILES | IC50 [µM]
1 | CN1CC[C@@]2(C)c3cc(OC(=O)NCCCCCCCCN4CCOCC4)ccc3N(C)[C@@H]12 | 0.08
2 | CN1CC[C@@]2(C)c3cc(OC(=O)NCCCCN4CCOCC4)ccc3N(C)[C@@H]12 | 21
